The text below walks through data of PMC12535377, “Synaptic and intrinsic plasticity mediated by CCK-type signaling coordinates behavioral changes during motivational state shifts” (Cell reports, 2025).

Assay [1] relates to Aplysia californica. In words: Feeding behavior (food intake) in intact animals after peptide injection. It counts as in vivo. Particulars: for Behavioral effect (food intake), summary grade: Table S1 summary in words; for Food intake (seaweed consumed in a single meal): injection into hemocoel of apCCK solutions (10^-7 M or 10^-6 M) vs ASW, food-deprived animals. The source says: To explore the role of apCCKs as satiety signals in mollusks, we examined their effects on food intake. […] The remaining four forms had no impact (Figure S9). Moreover, [sY6, sY8]-apCCK1 slowed food consumption (Figure 2E), which could stem, in part, from a shift from ingestive to egestive patterns as the meal progressed. [sY6, sY8]-apCCK1 also extended the duration to consume one strip of seaweed compared to controls (Figure 2F), further mimicking natural satiety.
Behavioral experiments were conducted in two batches, each using animals from separate shipments. In the first batch (Figure 2), animals were larger, with an average body weight of 93.3 ± 4.8 g, and were food-deprived for 7 days prior to testing. In the second batch (Figure S9), animals were smaller (average weight: 70.6 ± 4.0 g) and were food-deprived for 5 days to account for their reduced size. In each experiment, two weight-matched animals were housed in separate round net cages (17 cm diameter and 17 cm height) that were placed in a 500 L tank filled with circulating aerated ASW (14°C–16°C). To ensure that the animals were responsive to food, they were first pretested with a small piece of seaweed. After this pretest, in each pair, one animal was injected (into the hemocoel using a syringe needle) with apCCKs freshly dissolved in 1.5 mL ASW, whereas the other was injected with 1.5 mL of ASW. Three minutes later, the feeding session commenced. Animals were hand-fed seaweed (Shirako, Tokyo, Japan) cut in 1 × 10 cm strips, weighing ~0.1 g, increasing 10-fold when hydrated. This hand-feeding approach has been used in prior study of Aplysia feeding behavior.[146],[147] The consumed seaweed amount was converted to hydrated weight and normalized to the animal’s body weight. Each strip of seaweed was delivered to the mouth area with forceps. Feeding was terminated after 1 h or when animals stopped ingesting seaweed for 3 min.

For assay [2], the target named is T1, apCCKR1 (Aplysia californica, UniProt A0ABM1AF30).
T1 sequence (A0ABM1AF30 1-261): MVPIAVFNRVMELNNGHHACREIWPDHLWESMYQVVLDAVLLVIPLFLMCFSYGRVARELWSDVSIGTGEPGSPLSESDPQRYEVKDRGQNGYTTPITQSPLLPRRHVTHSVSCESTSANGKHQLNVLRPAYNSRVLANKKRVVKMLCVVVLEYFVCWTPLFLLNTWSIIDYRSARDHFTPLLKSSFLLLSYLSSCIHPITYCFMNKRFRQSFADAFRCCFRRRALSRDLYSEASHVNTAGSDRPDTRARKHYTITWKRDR
Nature of the assay: IP1 accumulation assay, apCCKR1 in CHO-K1 cells. It counts as cell-based. The following applies: CHO-K1 cells transfected with receptor and promiscuous Gαq. The method, then: We tested receptor activation using the IP1 (inositol monophosphate) accumulation assay that measures IP1 generated in the Gαq pathway (see STAR Methods).
CHO-K1 cells were cultured in F-12K medium (Gibco, 21127–022) with 10% fetal bovine serum at 37°C in 5% CO2. Before transfection, cells were grown in 35 mm diameter tissue culture-treated dishes to 85% confluence. For transfection, 1.5 μg apCCKR plasmids or control plasmids (in pcDNA3.1(+) vector) and 1.5 μg promiscuous Gαq-family protein (in pcDNA3.1(+) vector) were mixed with 200 μL Opti-MEM (Gibco, 11058021), and 8 μL Turbofect (Thermo Fisher Scientific, R0531). This promiscuous Gαq protein contains substitutions to increase promiscuity,[148] and could bind to most GPCRs, ensuring an IP1 response when a potential ligand binds to its specific GPCR, irrespective of the GPCR’s normal association with any specific Gα proteins. The DNA mixture was incubated at room temperature for 15 min and then added dropwise to the cells in F-12K medium with 10% FBS (no antibiotics), followed by incubation at 37°C in 5% CO2 overnight. The next day, cells were detached using trypsin and reseeded in white 96-well half-area tissue culture-treated plates (Corning, 3688) at a density of 20,000 cells per well in F-12K and 10% FBS, and incubated at 37°C in 5% CO2 overnight. Activation of putative apCCK or related receptor was detected by monitoring IP1 accumulation using IPOne Detection Kit (Cisbio, 62IPAPEB), as previously described.[64],[65],[141],[149],[150]
Dose-response curves and bar graphs for experimental data were plotted using Prism software (GraphPad version 8). Data are presented as mean ± SEM of at least three independent experiments, except that LogEC50 values reported in the main text are the mean ± standard deviation (SD) from at least three independent experiments. Statistical tests were performed using Prism software. They included Student’s t-test, one-way or two-way ANOVA, as appropriate. […] Electrophysiological recordings were digitized online using AxoScope software version 10.7 (Molecular Devices, LLC, Sunnyvale, CA) and were plotted by CorelDraw version 2018 (Corel Corp., Ottawa, Canada).

[3] abbreviates: log[EC50] with negative sign, mean ± SD, at least three independent experiments, SD, read-out: apCCKR1: log[EC50] (converted).
[4] abbreviates: average of at least three independent experiments, read-out: apCCKR1: EC50.

Like-named read-outs stand apart in the source and are kept apart here. Non-standard residues stand in square brackets, D forms with d. Residues, ends and D or L forms follow the SMILES beside them. sY = N[C@@H](Cc1ccc(OS(=O)(=O)O)cc1)C(=O)O Bounds are passed on as bounds.

For `CC[C@H](C)[C@H](NC(=O)CNC(=O)[C@H](Cc1ccc(OS(=O)(=O)O)cc1)NC(=O)[C@H](CC(=O)O)NC(=O)CNC(=O)[C@H](Cc1ccc(OS(=O)(=O)O)cc1)NC(=O)[C@@H](N)CO)C(=O)NCC(=O)NCC(=O)NCC(=O)N[C@@H](CCCNC(=N)N)C(=O)N[C@@H](Cc1ccccc1)C(N)=O` [[sY2, sY5]-apCCK2] (H-S[sY]GD[sY]GIGGGRF-NH2), in assay [1], the “Behavioral effect (food intake), summary grade” value (“Behavioral effect (food intake)” below) is listed as “Weak” and the “Food intake (seaweed consumed in a single meal)” value is “significant but weaker effects”. Moreover, the EC50 in assay [2] (setting [3]) is 331 nM.
Regarding `CC[C@H](C)[C@H](NC(=O)CNC(=O)[C@H](Cc1ccc(O)cc1)NC(=O)[C@H](CC(=O)O)NC(=O)CNC(=O)[C@H](Cc1ccc(OS(=O)(=O)O)cc1)NC(=O)[C@@H](N)CO)C(=O)NCC(=O)NCC(=O)NCC(=O)N[C@@H](CCCNC(=N)N)C(=O)N[C@@H](Cc1ccccc1)C(N)=O` [[sY2]-apCCK2] (H-S[sY]GDYGIGGGRF-NH2), in assay [1], the “Behavioral effect (food intake)” value is “No effect” and the “Food intake (seaweed consumed in a single meal)” value is listed as “did not influence feeding”. In addition, in assay [2] (setting [4]), the EC50 was over 10000 nM.
Turning to H-SYGDYGIGGGRF-NH2 [apCCK2], in assay [1], the “Behavioral effect (food intake)” value was “No effect” and the “Food intake (seaweed consumed in a single meal)” value is on record as “did not influence feeding”. The EC50 in assay [2] (setting [4]) is over 10000 nM.
Take `CC[C@H](C)[C@H](NC(=O)CNC(=O)[C@H](Cc1ccc(OS(=O)(=O)O)cc1)NC(=O)[C@H](CC(=O)O)NC(=O)CNC(=O)[C@H](Cc1ccc(O)cc1)NC(=O)[C@@H](N)CO)C(=O)NCC(=O)NCC(=O)NCC(=O)N[C@@H](CCCNC(=N)N)C(=O)N[C@@H](Cc1ccccc1)C(N)=O` [[sY5]-apCCK2] (H-SYGD[sY]GIGGGRF-NH2): in assay [1], the “Behavioral effect (food intake)” value is given as “Moderate” and the “Food intake (seaweed consumed in a single meal)” value was “significant but weaker effects”. Also, the EC50 in assay [2] (setting [3]) was 851 nM.
